Test results: patent US9586896B2, “Nitroxyl donors with improved therapeutic index” (Cardioxyl Pharmaceuticals, Inc., priority 2013, dated 2017)

Assays:
[1] = In vitro stability (half-life) in PBS pH 7.4; assay type: physicochemical; conditions: pH 7.4, aerated PBS pH 7.4, 37° C., read-out: T1/2 (minutes) PBS
Method: Compound (1), compound (2), and CXL-1020 were tested for their stability in plasma. The assay system comprised (i) PBS, or plasma from rat, dog or human (at least 3 donors, male, pooled) at pH 7.4, and (ii) for tests conducted in plasma, an anticoagulant (sodium heparin or sodium citrate). Each test compound (5 μM) was incubated in PBS or plasma at 37° C. on a THERMOMIXER® with shaking Three samples (n=3) were taken at each of seven sampling time points: 0, 10, 30, 60, 90, 180 and 360 minutes. The samples were immediately combined with 3 volumes (i.e., 3 times the volume of PBS or plasma) of acetonitrile containing 1% formic acid and an internal standard to terminate the reaction. AB SCIEX API 3000 LC-MS/MS analysis of the test compounds was performed without a standard curve. Half-lives (T1/2) of the test compounds were determined from graphs of the percent remaining values using the peak area response ratio.

dogs = test: Microscopic pathology of the vasculature, canine implanted central catheter 72 hour model; assay type: in vivo, beagle dogs; conditions: edema, vascular/perivascular inflammation, hemorrhage, molar equivalent dose rates to CXL-1020
Method: Confirmation was obtained through evaluating the nitroxyl donors through detailed histopathology of the vasculature at the site of insertion of into the femoral vein (15 cm distal to the catheter tip), along the catheter track to the catheter tip, and past the tip downstream 20 cm.
A composite lab score was calculated from the sum of these findings scores. In FIG. 5, the cumulative histology composite lab score ranges from 0-2 (low severity) to 11-12 (high severity). […] The NOAEL values determined based on these microscopic pathology markers for a series of nitroxyl donors, expressed in molar equivalent dose rates (μg/kg/min) to CXL-1020, are provided in Table 8.

[2] = test system: heart failure canines (tachycardia-pacing model); test: Hemodynamic efficacy in heart failure canines (tachycardia-pacing model); assay type: in vivo, beagle dogs; conditions: for hemodynamic activity relative to CXL-1020: both normal and failing canine models; for hemodynamic effects produced: normal and failing canine models, FIGS. 1-2
Method: The cardiovascular effects of nitroxyl donors were examined by means of pressure-volume (PV) curve (loops) analysis in conscious, sling-restrained beagle dogs. Animals were allowed free access to drinking water and a commercial canine diet under standard laboratory conditions. Fluorescent lighting was provided via an automatic timer for approximately 12 hours per day. On occasion, the dark cycle was interrupted intermittently due to study-related activities. Temperature and humidity were monitored and recorded daily and maintained to the maximum extent possible between 64° F. and 84° F. and 30% to 70%, respectively. The dogs were acclimated for a period of at least 1 week prior to surgery. Following surgery and recovery the animals were acclimated to sling restraint for a period up to 4.5 hours. Animals were fasted overnight prior to surgery.
Once a stable (surgical) plane of anesthesia had been established, a left-thoracotomy was performed (under strict aseptic conditions) and each animal was chronically instrumented with sono-micrometry crystals providing left-ventricular (LV) dimensions/volume. Additionally, a fluid-filled catheter and a solid-state monometer were placed in the left ventricle for pressure monitoring. A fluid-filled catheter was placed in the right ventricle (RV) and the aorta (Ao) for pressure monitoring/test article administration. […] The catheters/wires were aseptically tunneled and externalized between the scapulae. Over the course of the study, fluid-filled catheters were regularly (at least once weekly) flushed with a locking-solution in order to prevent both clotting and bacterial growth (2-3 mL of Taurolidine-Citrate solution, TCS-04; Access Technologies).
Following the cardiovascular instrumentation, the right jugular vein was carefully exposed and cannulated with a bipolar pacing lead/catheter (CAPSUREFIX® Novus; Medtronic). Under fluoroscopic guidance, this pacing lead was advanced normograde into the right ventricle and actively affixed (screwed in) to the apical endocardium. The proximal end of the lead was secured to the pacing device (Kappa 900; Medtronic). Subsequently, the pacemaker was placed/secured in a subcutaneous pocket in the neck.
Following a recovery from surgery and/or sufficient washout period from dosing with a nitroxyl donor, animals were subjected to a 3-week overdrive pacing (210 ppm) protocol aimed to trigger left-ventricular dysfunction/remodeling consistent with the heart failure syndrome. In short, via the implanted pacemaker/right-ventricular lead, the ventricle(s) was asynchronously and continuously paced at 210 beats per minute (bpm). Left-ventricular remodeling (and heart failure induction) were confirmed by both echocardiographic (e.g., ejection fraction (EF)) decrease from about 60% to a target of about 35%, left ventricular (LV) dilatation) and neuro-humoral (e.g., N-terminal pro-brain natriuretic peptide (NT proBNP) elevation to greater than 1800 pM/L from a baseline of about 300 pM/L) changes after approximately 3 weeks of pacing. Echocardiographs and blood samples were collected in the absence of pacing (for at least 15 min).
The animals (normal or heart failure) were studied during treatment with both vehicle (control) and a nitroxyl donor (either CXL-1020, a compound of formula (1) or a compound of formula (2)). At each dosing period, conscious sling-restrained animals were continuously monitored for up to two to three hours. Following hemodynamic stabilization, infusion of the vehicle was started. […] Infusion of the vehicle was continued and after 30 min another (baseline) set of hemodynamic data was collected. Following collection of baseline hemodynamic data, infusion of the nitroxyl donor compound being tested was initiated and derived hemodynamic/functional parameters were obtained/performed at up to four (4) time points selected from the following: at 30, 60, 90, 120, and 180 minutes after the onset of vehicle/test compound infusion. […]

[3] = heart failure canines, i.v. infusion, dose rate 75 (μmol/kg/min [sic])

| Structure (SMILES) | half-life at 5 μM [1] [min] | NOAEL (μg/kg/min), microscopic pathology markers (dogs) | HR (% Change from Baseline) ([2]; heart failure canines, i.v. infusion, dose rate 100 (μmol/kg/min [sic])) [%] | hemodynamic activity relative to CXL-1020 [2] | EDV (% Change from Baseline) [2, 3] [%] | ESP (% Change from Baseline) [2, 3] [%] | ESPVR (% Change from Baseline) [2, 3] [%] | HR (% Change from Baseline) [2, 3] [%] | PRSW (% Change from Baseline) [2, 3] [%] | SW (% Change from Baseline) [2, 3] [%] | Tau (% Change from Baseline) [2, 3] [%] | hemodynamic effects produced [2] |
| --- | --- | --- | --- | --- | --- | --- | --- | --- | --- | --- | --- | --- |
| CS(=O)(=O)c1ccccc1S(=O)(=O)NO [CXL-1020, N-hydroxy-2-methanesulfonylbenzene-1-sulfonamide] | 2 | <3 μg/kg/min | −0.23 ± 2.25 | – | – | – | – | – | – | – | – | – |
| Cc1ccc(S(=O)(=O)NO)o1 [Compound (1), N-Hydroxy-5-methylfuran-2-sulfonamide] | ~68 | ≧180 μg/kg/min | – | comparable hemodynamic activity to CXL-1020 | −9 ± 2 | −17 ± 1 | 29 ± 1 | −6 ± 2 | 22 ± 1 | −9 ± 2 | −16 ± 4 | significant enhancement of inotropy and lusitropy, and modest reductions in blood pressure |
| CS(=O)(=O)c1cccc(S(=O)(=O)NO)c1 [(2), N-Hydroxy-3-methanesulfonylbenzene-1-sulfonamide] | ~50 | ≧180 μg/kg/min | – | comparable hemodynamic activity to CXL-1020 | – | – | – | – | – | – | – | significant enhancement of inotropy and lusitropy, and modest reductions in blood pressure |
